Experimental data: US20240247035A1, “STAPLED ANTIMICROBIAL PEPTIDES (STAMPS) AND USES THEREOF” (Lytica Therapeutics, Inc., priority 2021, published 2024)
In brackets after ≈: the same amount, converted by molar mass. Bridge positions count the residues as written; N and C are the ends. Square brackets hold non-standard residues; d marks the D form. Peptide text beside a SMILES is read from it. S5 = C=CCCC[C@](C)(N)C(=O)O

Tests used:
[1] = 90 minute cytotoxicity assay (LDH release), renal toxicity; assay type: cell-based; conditions: human
Protocol: (§1) Cell culture: RPTEC were maintained in MEM media supplemented with growth factors. HEPG2 cell line was maintained in Eagle's Minimum Essential Medium (EMEM) supplemented with fetal bovine serum to a final concentration of 10%.
90 minute cytotoxicity assay: Cells were plated in a 96-well format, and after overnight incubation, media was replaced with fresh media. Serial dilutions of StAMPs from a 5 mg/mL water stock, or vehicle, were added to the cells in a final volume of 100 μl. After incubating at 37° C. for 90 min, 50 μl of cell culture media was transferred to a clear 96-well plate, incubated with 50 μl of lactate dehydrogenase (LDH) assay reagent for 10 min, and absorbance measured at 490 nm on a microplate reader.
(§2) Renal toxicity was measured after 90 minutes of incubation, while liver toxicity was measured after 48 hours of incubation with StAMPs. N/A=not tested.

[2] = 48 hours cytotoxicity assay (CellTiter-Glo), liver toxicity; assay type: cell-based; conditions: human
Protocol: as §1
48 hours cytotoxicity assay: Cells were plated in a 96-well format, and after 4 hour incubation to allow attachment, serial dilutions of StAMPs from a 5 mg/mL water stock, or vehicle, were then added to the cells in a final volume of 100 μl. After incubating at 37° C. for 48 hours, 100 μl of CellTiter-Glo® reagent was added to the cells, and the plates were incubated 10 minutes at room temperature. Luminescence was then measured on a microplate reader.
as §2

SMILES	IC50 at 90 min [1]	IC50 at 48 hours [2]
CC[C@H](C)[C@H](NC(=O)[C@H](CCCCN)NC(=O)[C@H](CCCCN)NC(=O)CNC(=O)[C@H](CCCCN)NC(=O)[C@]1(C)CCCC=CCCC[C@](C)(NC(=O)CN)C(=O)N[C@@H](Cc2ccccc2)C(=O)N[C@@H](CO)C(=O)N[C@@H](CCCCN)C(=O)N1)C(=O)N[C@@H](CCCCN)C(=O)N[C@@H](CC(N)=O)C(=O)N[C@@H](CC(C)C)C(=O)N[C@@H](CC(C)C)C(=O)N[C@@]1(C)CCCC=CCCC[C@@](C)(C(=O)N[C@@H](CCCCN)C(N)=O)NC(=O)[C@H](CC(C)C)NC(=O)CNC(=O)[C@H](CO)NC1=O [compound 38] (H-G[S5]FSK[S5]KGKKIKNLL[S5]SGL[S5]K-NH2; staple 2-6, 16-20)	51 µg/mL (≈ 21.7 µM)	54 µg/mL (≈ 23 µM)
CC[C@H](C)[C@H](NC(=O)[C@H](CCCCN)NC(=O)[C@H](CCCCN)NC(=O)CNC(=O)[C@H](CCCCN)NC(=O)[C@]1(C)CCCC=CCCC[C@](C)(NC(=O)CN)C(=O)N[C@@H](Cc2ccccc2)C(=O)N[C@@H](CO)C(=O)N[C@@H](CCCCN)C(=O)N1)C(=O)N[C@@H](CCCCN)C(=O)N[C@@]1(C)CCCC=CCCC[C@@](C)(C(=O)NCC(=O)N[C@@H](CC(C)C)C(=O)N[C@@H](CCCCN)C(=O)NCC(N)=O)NC(=O)[C@H]([C@@H](C)CC)NC(=O)[C@H](CC(C)C)NC(=O)[C@H](CC(C)C)NC1=O [compound 34] (H-G[S5]FSK[S5]KGKKIK[S5]LLI[S5]GLKG-NH2; staple 2-6, 13-17)	35 µg/mL (≈ 15.1 µM)	22 µg/mL (≈ 9.5 µM)
CC[C@H](C)[C@@H]1NC(=O)[C@@](C)(NC(=O)[C@H](CC(C)C)NC(=O)[C@H](CC(N)=O)NC(=O)[C@H](CCCCN)NC(=O)[C@H](CC(C)C)NC(=O)[C@H](CCCCN)NC(=O)[C@H](CCCCN)NC(=O)CNC(=O)[C@H](C)NC(=O)[C@]2(C)CCCC=CCCC[C@](C)(NC(=O)CN)C(=O)N[C@@H](CCCCN)C(=O)N[C@@H](CO)C(=O)N[C@@H](CCCCN)C(=O)N2)CCCC=CCCC[C@@](C)(C(=O)N[C@@H](CCCCN)C(=O)NCC(N)=O)NC(=O)CNC(=O)[C@H](CO)NC1=O [compound 12] (H-G[S5]KSK[S5]AGKKLKNL[S5]ISG[S5]KG-NH2; staple 2-6, 15-19)	> 200 µg/mL	91 µg/mL (≈ 41.1 µM)
CC[C@H](C)[C@H](NC(=O)[C@H](CCCCN)NC(=O)[C@H](CCCCN)NC(=O)CNC(=O)[C@H](CCCCN)NC(=O)[C@]1(C)CCCC=CCCC[C@](C)(NC(=O)CN)C(=O)N[C@@H](Cc2ccccc2)C(=O)N[C@@H](CO)C(=O)N[C@@H](CCCCN)C(=O)N1)C(=O)N[C@@H](CCCCN)C(=O)N[C@@H](CC(N)=O)C(=O)N[C@@H](CC(C)C)C(=O)N[C@@]1(C)CCCC=CCCC[C@@](C)(C(=O)N[C@@H](CCCCN)C(=O)N[C@@H](CCCCN)C(N)=O)NC(=O)CNC(=O)[C@H](CO)NC(=O)[C@H]([C@@H](C)CC)NC1=O [compound 4] (H-G[S5]FSK[S5]KGKKIKNL[S5]ISG[S5]KK-NH2; staple 2-6, 15-19)	34 µg/mL (≈ 14.4 µM)	24 µg/mL (≈ 10.2 µM)
CC[C@H](C)[C@H](NC(=O)[C@H](CCCCN)NC(=O)[C@H](CCCCN)NC(=O)CNC(=O)[C@H](CCCCN)NC(=O)[C@]1(C)CCCC=CCCC[C@](C)(NC(=O)CN)C(=O)N[C@@H](CCCCN)C(=O)N[C@@H](CO)C(=O)N[C@@H](CCCCN)C(=O)N1)C(=O)N[C@@H](CCCCN)C(=O)N[C@@H](CC(N)=O)C(=O)N[C@@H](CC(C)C)C(=O)N[C@@]1(C)CCCC=CCCC[C@@](C)(C(=O)N[C@@H](CCCCN)C(=O)N[C@@H](CC(N)=O)C(=O)NCC(=O)NCC(=O)NCC(=O)N[C@@H](CCC(=O)O)C(N)=O)NC(=O)[C@H](Cc2ccccc2)NC(=O)[C@H](CO)NC(=O)[C@H]([C@@H](C)CC)NC1=O [compound 24] (H-G[S5]KSK[S5]KGKKIKNL[S5]ISF[S5]KNGGGE-NH2; staple 2-6, 15-19)	112 µg/mL (≈ 41.2 µM)	16 µg/mL (≈ 5.89 µM)
CC[C@H](C)[C@H](NC(=O)[C@H](CCCCN)NC(=O)[C@H](CCCCN)NC(=O)CNC(=O)[C@H](CCCCN)NC(=O)[C@]1(C)CCCC=CCCC[C@](C)(NC(=O)CN)C(=O)N[C@@H](CCCCN)C(=O)N[C@@H](CO)C(=O)N[C@@H](CCCCN)C(=O)N1)C(=O)N[C@@H](CCCCN)C(=O)N[C@@H](CC(N)=O)C(=O)N[C@@H](CC(C)C)C(=O)N[C@@]1(C)CCCC=CCCC[C@@](C)(C(=O)N[C@@H](CCCCN)C(=O)N[C@@H](CC(N)=O)C(N)=O)NC(=O)[C@H](Cc2ccccc2)NC(=O)[C@H](CO)NC(=O)[C@H]([C@@H](C)CC)NC1=O [compound 22] (H-G[S5]KSK[S5]KGKKIKNL[S5]ISF[S5]KN-NH2; staple 2-6, 15-19)	16 µg/mL (≈ 6.62 µM)	67 µg/mL (≈ 27.7 µM)
CC[C@H](C)[C@H](NC(=O)[C@]1(C)CCCC=CCCC[C@](C)(NC(=O)[C@H](CCCCN)NC(=O)[C@H](CCCCN)NC(=O)CNC(=O)[C@H](CCCCN)NC(=O)[C@]2(C)CCCC=CCCC[C@](C)(NC(=O)CN)C(=O)N[C@@H](Cc3ccccc3)C(=O)N[C@@H](CO)C(=O)N[C@@H](CCCCN)C(=O)N2)C(=O)N[C@@H](CCCCN)C(=O)N[C@@H](CC(N)=O)C(=O)N[C@@H](CC(C)C)C(=O)N1)C(=O)N[C@@H](CO)C(=O)NCC(=O)N[C@@H](CC(C)C)C(=O)N[C@@H](CCCCN)C(=O)NCC(N)=O [compound 35] (H-G[S5]FSK[S5]KGKK[S5]KNL[S5]ISGLKG-NH2; staple 2-6, 11-15)	27 µg/mL (≈ 11.8 µM)	23 µg/mL (≈ 10 µM)
CC[C@H](C)[C@H](NC(=O)[C@H](CCCCN)NC(=O)[C@H](CCCCN)NC(=O)CNC(=O)[C@H](CCCCN)NC(=O)[C@]1(C)CCCC=CCCC[C@](C)(NC(=O)CN)C(=O)N[C@@H](CCCCN)C(=O)N[C@@H](CO)C(=O)N[C@@H](CCCCN)C(=O)N1)C(=O)N[C@@H](CCCCN)C(=O)N[C@@H](CC(N)=O)C(=O)N[C@@H](CC(C)C)C(=O)N[C@@]1(C)CCCC=CCCC[C@@](C)(C(=O)N[C@@H](CCCCN)C(=O)NCC(N)=O)NC(=O)CNC(=O)[C@H](CO)NC(=O)[C@H]([C@@H](C)CC)NC1=O [compound 2] (H-G[S5]KSK[S5]KGKKIKNL[S5]ISG[S5]KG-NH2; staple 2-6, 15-19)	203 µg/mL (≈ 89.4 µM)	109 µg/mL (≈ 48 µM)
CC[C@H](C)[C@@H]1NC(=O)[C@@](C)(NC(=O)[C@H](CC(C)C)NC(=O)[C@H](CC(N)=O)NC(=O)[C@H](CCCCN)NC(=O)[C@H](CC(C)C)NC(=O)[C@H](CCCCN)NC(=O)[C@H](CCCCN)NC(=O)CNC(=O)[C@H](C)NC(=O)[C@]2(C)CCCC=CCCC[C@](C)(NC(=O)CN)C(=O)N[C@@H](Cc3ccccc3)C(=O)N[C@@H](CO)C(=O)N[C@@H](CCCCN)C(=O)N2)CCCC=CCCC[C@@](C)(C(=O)N[C@@H](CCCCN)C(=O)N[C@@H](CC(N)=O)C(N)=O)NC(=O)CNC(=O)[C@H](CO)NC1=O [compound 13] (H-G[S5]FSK[S5]AGKKLKNL[S5]ISG[S5]KN-NH2; staple 2-6, 15-19)	17 µg/mL (≈ 7.42 µM)	210 µg/mL (≈ 91.7 µM)
CC[C@H](C)[C@H](NC(=O)[C@H](CCCCN)NC(=O)[C@H](CCCCN)NC(=O)CNC(=O)[C@H](CCCCN)NC(=O)[C@]1(C)CCCC=CCCC[C@](C)(NC(=O)CN)C(=O)N[C@@H](Cc2ccccc2)C(=O)N[C@@H](CO)C(=O)N[C@@H](CCCCN)C(=O)N1)C(=O)N[C@@H](CCCCN)C(=O)N[C@@H](CC(N)=O)C(=O)N[C@@H](CC(C)C)C(=O)N[C@@]1(C)CCCC=CCCC[C@@](C)(C(=O)N[C@@H](CCCCN)C(=O)NCC(N)=O)NC(=O)CNC(=O)[C@H](CO)NC(=O)[C@H](CCCCN)NC1=O [compound 31] (H-G[S5]FSK[S5]KGKKIKNL[S5]KSG[S5]KG-NH2; staple 2-6, 15-19)	116 µg/mL (≈ 50.3 µM)	86 µg/mL (≈ 37.3 µM)
CC[C@H](C)[C@H](NC(=O)[C@H](CCCCN)NC(=O)[C@H](CCCCN)NC(=O)CNC(=O)[C@H](CCCCN)NC(=O)[C@]1(C)CCCC=CCCC[C@](C)(NC(=O)CN)C(=O)N[C@@H](CCCCN)C(=O)N[C@@H](CO)C(=O)N[C@@H](CCCCN)C(=O)N1)C(=O)N[C@@H](CCCCN)C(=O)N[C@@H](CC(N)=O)C(=O)N[C@@H](CC(C)C)C(=O)N[C@@]1(C)CCCC=CCCC[C@@](C)(C(=O)N[C@@H](CCCCN)C(=O)NCC(N)=O)NC(=O)[C@H](CCCCN)NC(=O)[C@H](CO)NC(=O)[C@H]([C@@H](C)CC)NC1=O [compound 5] (H-G[S5]KSK[S5]KGKKIKNL[S5]ISK[S5]KG-NH2; staple 2-6, 15-19)	180 µg/mL (≈ 76.9 µM)	100 µg/mL (≈ 42.7 µM)
CC[C@H](C)[C@H](NC(=O)CN)C(=O)N[C@@H](Cc1ccccc1)C(=O)N[C@@H](CO)C(=O)N[C@@H](CCCCN)C(=O)N[C@@H](CC(C)C)C(=O)N[C@@]1(C)CCCC=CCCC[C@@](C)(C(=O)N[C@@H](CCCCN)C(=O)N[C@@H](CC(N)=O)C(=O)N[C@@H](CC(C)C)C(=O)N[C@@H](CCCCN)C(=O)N[C@H](C(=O)N[C@@H](CO)C(=O)NCC(=O)N[C@@H](CC(C)C)C(=O)N[C@@H](CCCCN)C(=O)NCC(N)=O)[C@@H](C)CC)NC(=O)[C@H](CCCCN)NC(=O)[C@H](CCCCN)NC(=O)CNC1=O [compound 41] (H-GIFSKL[S5]GKK[S5]KNLKISGLKG-NH2; staple 7-11)	147 µg/mL (≈ 64.9 µM)	172 µg/mL (≈ 75.9 µM)
CC[C@H](C)[C@H](NC(=O)[C@H](CCCCN)NC(=O)[C@H](CCCCN)NC(=O)CNC(=O)[C@H](CCCCN)NC(=O)[C@]1(C)CCCC=CCCC[C@](C)(NC(=O)CN)C(=O)N[C@@H](Cc2ccccc2)C(=O)N[C@@H](CO)C(=O)N[C@@H](CCCCN)C(=O)N1)C(=O)N[C@@H](CCCCN)C(=O)N[C@@H](CC(N)=O)C(=O)N[C@@H](CC(C)C)C(=O)N[C@@]1(C)CCCC=CCCC[C@@](C)(C(=O)N[C@@H](CCCCN)C(=O)NCC(N)=O)NC(=O)CNC(=O)[C@H](CCCCN)NC(=O)[C@H]([C@@H](C)CC)NC1=O [compound 32] (H-G[S5]FSK[S5]KGKKIKNL[S5]IKG[S5]KG-NH2; staple 2-6, 15-19)	33 µg/mL (≈ 14.2 µM)	25 µg/mL (≈ 10.7 µM)
